According to ChEMBL document CHEMBL5614422, “Design, synthesis and biological evaluation of N-salicyloyl tryptamine derivatives as multifunctional neuroprotectants for the treatment of ischemic stroke” (Eur J Med Chem, 2024):
The source made the active and inactive calls. The rule behind the calls is not given here.

Columns and labels:
Mus musculus [1] = species: Mus musculus; assay: Antiinflammatory activity in MCAO-R induced 12 hrs fasted male C57BL/6J mouse model assessed as reduction in TNF-alpha level by ELISA method; format: functional, organism-based
[2] = Antioxidant activity assessed as trolox equivalent of ORAC radical scavenging activity at 0.125 to 2 uM by AAPH based automatic microplate reader analysis; format: functional; conditions: dose 0.125-2 µM
Mus musculus [3] = species: Mus musculus; assay: Antiinflammatory activity in MCAO-R induced 12 hrs fasted male C57BL/6J mouse model assessed as reduction in IL-6 level by ELISA method; format: functional, organism-based
HT-22 [4] = assay: Cytoprotective activity against OGD/R induced mouse HT-22 cells assessed as increase in cell viability at 10 uM measured after 24 hrs in presence of ML385 by MTT assay; format: functional, cell-based
HT-22 [5] = assay: Upregulation of HO-1 protein level in OGD/R induced mouse HT-22 cells at 1 to 10 uM by Western blot analysis; format: functional, cell-based; conditions: dose 1-10 µM
BV-2 [6] = assay: Anti-inflammatory activity against OGD/R and erastin induced ferroptosis in mouse BV-2 cells assessed as inhibition of TNF-alpha production preincubated for 6 hrs followed by OGD addition and measured after 1 hr by ELISA method; format: functional, cell-based; conditions: dose 10-40 µM, time 7.0 hrs
HT-22 [7] = assay: Anti-ferroptotic activity against OGD/R induced mouse HT-22 cells decrease as in Fe2+ level at 10 uM in presence of ML385 by cell ferrous calorimetry analysis; format: functional, cell-based
Mus musculus [8] = assay: In vivo activation of Nrf2 pathway in MCAO-R induced 12 hrs fasted male C57BL/6J mouse model assessed as increase in NQO1 expression level at 10 to 50 mg/kg, ip by Western blot analysis; format: functional, organism-based; conditions: dose 10-50 mg/kg
HT-22 [9] = assay: Cytoprotective activity against OGD/R induced mouse HT-22 cells assessed as inhibition of intracellular LDH release at 10 uM in presence of ML385; format: functional, cell-based
Mus musculus [10] = species: Mus musculus; assay: Antiinflammatory activity in MCAO-R induced 12 hrs fasted male C57BL/6J mouse model assessed as reduction in IL-18 level by ELISA method; format: functional, organism-based
BV-2 [11] = assay: Anti-inflammatory activity against OGD/R and erastin induced ferroptosis in mouse BV-2 cells assessed as inhibition of IL-6 production preincubated for 6 hrs followed by OGD addition and measured after 1 hr by ELISA method; format: functional, cell-based; conditions: dose 10-40 µM, time 7.0 hrs
HT-22 [12] = assay: Anti-apoptotic activity in OGD/R mouse HT-22 cells assessed as reduction in proportion of apoptic cells by annexin V-FITC and PI staining based flow cytometry analysis; format: functional, cell-based; conditions: dose 1-10 µM
HT-22 [13] = assay: Upregulation of GCLC protein level in OGD/R induced mouse HT-22 cells at 1 to 10 uM by Western blot analysis; format: functional, cell-based; conditions: dose 1-10 µM
[14] = Antioxidant activity assessed as free radical scavenging activity at 40 to 80 uM incubated in dark for 30 mins under shaking condition by DPPH assay; format: functional; conditions: dose 40-80 µM
BV-2 [15] = assay: Anti-inflammatory activity against OGD/R and erastin induced ferroptosis in mouse BV-2 cells assessed as inhibition of IL-18 production preincubated for 6 hrs followed by OGD addition and measured after 1 hr by ELISA method; format: functional, cell-based; conditions: dose 10-40 µM, time 7.0 hrs
HT-22 [16] = assay: Anti-ferroptotic activity against OGD/R induced mouse HT-22 cells decrease in MDA level at 10 uM in presence of ML385; format: functional, cell-based
Mus musculus [17] = assay: Neuroprotective activity against MCAO-R induced 12 hrs fasted male C57BL/6J mouse model assessed as reduction in infarct volume at 25 mg/kg, ip for 7 days by TTC staining based analysis; format: functional, organism-based; conditions: time 7.0 day
HT-22 [18] = assay: Antioxidant activity against OGD/R induced oxidative stress in mouse HT-22 cells assessed as reduction in ROS release level at 10 uM in presence of ML385by DCFH-DA staining based flow cytometry analysis; format: functional, cell-based
HT-22 [19] = assay: Induction of morphological changes in OGD/R induced mouse HT-22 cells assessed as attenuation of cell shrinkage by microscopic based analysis; format: functional
HT-22 [20] = assay: Induction of morphological changes in OGD/R induced mouse HT-22 cells assessed as attenuation of synaptic shortening by microscopic based analysis; format: functional, cell-based
HT-22 [21] = assay: Anti-ferroptotic activity against OGD/R induced mouse HT-22 cells increase in GSH level at 10 uM; format: functional, cell-based
HT-22 [22] = assay: Cytoprotective activity against OGD/R induced mouse HT-22 cells assessed as increase in cell viability at 10 uM measured after 24 hrs by MTT assay; format: functional, cell-based
[23] = biological target: Phospholipid hydroperoxide glutathione peroxidase GPX4 (Mus musculus) (UniProt O70325); assay: In vivo activation of Nrf2 pathway in MCAO-R induced 12 hrs fasted male C57BL/6J mouse model assessed as increase in GPX4 expression level at 10 to 50 mg/kg, ip by Western blot analysis; format: functional, organism-based; conditions: dose 10-50 mg/kg
Mus musculus [24] = assay: Neuroprotective activity against MCAO-R induced 12 hrs fasted male C57BL/6J mouse model assessed as decrease in LDH level in cerebral ischemic tissue at 10 to 50 mg/kg, ip administered once a day for 7 days; format: functional, organism-based; conditions: dose 10-50 mg/kg, time 7.0 day
HT-22 [25] = assay: Cytoprotective activity against OGD/R induced mouse HT-22 cells assessed as inhibition of intracellular LDH release at 10 uM; format: functional, cell-based
HT-22 [26] = assay: Antioxidant activity against OGD/R induced oxidative stress in mouse HT-22 cells assessed as decrease in MDA content by absorbance based automatic microplate reader analysis; format: functional, cell-based
HT-22 [27] = assay: Anti-ferroptotic activity against OGD/R induced mouse HT-22 cells increase in GSH level at 10 uM in presence of ML385; format: functional, cell-based
HT-22 [28] = assay: Antioxidant activity against OGD/R induced oxidative stress in mouse HT-22 cells assessed as increase in SOD activity by absorbance based automatic microplate reader analysis; format: functional, cell-based
HT-22 [29] = assay: Antioxidant activity against OGD/R induced damage in mouse HT-22 cells assessed as decrease in proportion of mitochondrial depolarized cells by JC-1 fluorescence based flow cytometry analysis; format: functional, cell-based; conditions: dose 1-10 µM

Sequence of Phospholipid hydroperoxide glutathione peroxidase GPX4 (Mus musculus) (O70325 whole entry): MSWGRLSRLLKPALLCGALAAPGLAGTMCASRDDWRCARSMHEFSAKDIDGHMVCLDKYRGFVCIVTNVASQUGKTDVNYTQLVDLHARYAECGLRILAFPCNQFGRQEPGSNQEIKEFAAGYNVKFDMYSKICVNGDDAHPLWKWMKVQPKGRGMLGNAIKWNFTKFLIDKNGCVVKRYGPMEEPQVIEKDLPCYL

Cc1ccc(C(=O)NCCc2c[nH]c3ccc(N(C)C)cc23)c(O)c1
Activity (Mus musculus [1]): Active
Activity [2]: 5.2
Activity (Mus musculus [3]): Active
Activity (HT-22 [4]): inactive
Activity (HT-22 [5]): Active
Activity (BV-2 [6]): Dose-Dependent Effect
Activity (HT-22 [7]): inactive
Activity (Mus musculus [8]): Active
Activity (HT-22 [9]): inactive
Activity (Mus musculus [10]): Active
Activity (BV-2 [11]): Dose-Dependent Effect
Activity (HT-22 [12]): Dose-Dependent Effect
Activity (HT-22 [13]): Active
Activity [14]: Active
Activity (BV-2 [15]): Dose-Dependent Effect
Activity (HT-22 [16]): inactive
Activity (Mus musculus [17]): Active
Activity (HT-22 [18]): inactive
Activity (HT-22 [19]): Active
Activity (HT-22 [20]): Active
Activity (HT-22 [21]): Active
Activity (HT-22 [22]): Active
Activity [23]: Active
Activity (Mus musculus [24]): Active
Activity (HT-22 [25]): Active
Activity (HT-22 [26]): Active
Activity (HT-22 [27]): inactive
Activity (HT-22 [28]): Active
Activity (HT-22 [29]): Dose-Dependent Effect
